Data reported in patent publication US20210333263A1, “REDOX ACTIVATABLE FLUORESCENT SENSORS” (The Board of Regents of the University of Texas System, priority 2016, published 2021).

B1: OVA^qRAS: Ovalbumin labeled by qRAS (conjugate, UniProt P01012 2-386, looked up)
Ovalbumin: GSIGAASMEFCFDVFKELKVHHANENIFYCPIAIMSALAMVYLGAKDSTRTQINKVVRFDKLPGFGDSIEAQCGTSVNVHSSLRDILNQITKPNDVYSFSLASRLYAEERYPILPEYLQCVKELYRGGLEPINFQTAADQARELINSWVESQTNGIIRNVLQPSSVDSQTAMVLVNAIVFKGLWEKAFKDEDTQAMPFRVTEQESKPVQMMYQIGLFRVASMASEKMKILELPFASGTMSMLVLLPDEVSGLEQLESIINFEKLTEWTSSNVMEERKIKVYLPRMKMEEKYNLTSVLMAMGITDVFSSSANLSGISSAESLKISQAVHAAHAEINEAGREVVGSAEAGVDAASVSEEFRADHPFLFCIKHIATNAVLFFGRCVSP
modifications: qRAS label

How the values were obtained:
A549 lung cancer cells = assay: High-throughput quantification of cytosolic delivery of qRAS-labeled protein on a plate reader; assay type: cell-based; settings: cells pretreated with 50 μM NEM for 30 min, then JetPEI and OVA^qRAS
Description: A549 cancer cells were seeded into 96-well black plate at a density of 10,000 cells per well and incubated for 24 hr. The polymer solution (100 μg/mL) and qRAS-labeled protein (OVA^qRAS or IgG^qRAS, 25 μg/mL) were co-incubated with cells for 40 min at 37° C. The cells were washed twice with PBS (pH 7.4) and cultured in complete culture medium. The fluorescence of TMR and Cy5 were measured on a Tecan fluorescent plate reader at different times. At 24 hr, 5 mM DTT was added to cleave the intracellular disulphide bond and completely release the TMR signal. The excitation and emission settings: TMR: Ex: 545 nm with bandwidth 9 nm, Em: 595 nm with bandwidth 20 nm; Cy5: Ex: 640 nm with bandwidth 9 nm, Em: 690 nm with bandwidth 20 nm.
The activation percentage (%) of OVA^qRAS was calculated using the equation described below:
Activation (%)=(FTMR−F0)/(FTMR,DTT−F0)*100
where FTMR is the fluorescence intensity of TMR at different times, FTMR,DTT is the fluorescence intensity of TMR after the addition of DTT at 24 hr, and F0 is the background of TMR fluorescence.
For the N-ethylmaleimide (NEM) blocking experiments, the same procedures were used except that the cells were pretreated with 50 μM NEM for 30 min prior to the treatment with polymer and OVA^qRAS.

[1] = Fluorescence emission as a function of pH in PBS; assay type: physicochemical; settings: pH 4.0 to 8.0, PBS, 6 hours
Description: Samples were excited at 390 nm.
FIG. 9 show the normalized fluorescence emission ratio of OVA^qRAS in PBS at different pH. OVA^qRAS (0.5 mg/mL) was incubated in PBS with different pH for 6 hours. The fluorescence emission spectra of TMR and Cy5 were recorded using a Hitachi fluorometer with excitation wavelength at 550 nm and 640 nm, respectively.

| Molecule | fluorescence signals of OVA^qRAS after NEM pretreatment (A549 lung cancer cells) | TMR/Cy5 ratio across pH range [1] |
| --- | --- | --- |
| CCN1C(=O)C=CC1=O [N-ethylmaleimide] | significant suppression of fluorescence signals |  |
| B1 |  | remained constant |
